The target of one assay is T1, PI3Kδ (Homo sapiens, UniProt O00329).
T1 construct: Full-length p110β/p85α and p110δ/p85α were cloned and expressed in a similar manner; Strep-tag followed by TEV protease site (N, cleaved yes); made in house; host or cells: Spodoptera frugiperda Sf9 (plasmids OP833 and OP809)
Briefly: ADP-Glo in vitro lipid kinase assay, PI3Kδ. The assay is classed as biochemical. The protocol:
The effect of 1938 on the in vitro lipid kinase activity of p85α in complex with p110α, p110β or p110δ (further referred to as PI3Kα, PI3Kβ and PI3Kδ) was tested. As a positive control, a bis-phosphorylated phosphopeptide (a PDGF-receptor-derived peptide phosphorylated on Tyr-740 and Tyr-751, hereafter referred to as pY peptide) was used to mimic engagement of the p85α SH2 domains with tyrosine-phosphorylated peptides in membrane-bound receptors and adaptor proteins, known to activate the PI3Kα complex.
Kinase reactions were performed with ADP-Glo kinase assay kit (Promega Corporation). The enzyme, substrate and compounds were diluted in reaction buffer (20 mM HEPES, 50 mM NaCl, 50 mM KCl, 3 mM MgCl2, 1 mM EGTA, 1 mM TCEP, pH 7.4). Final concentrations of PI3Kα and PI3Kδ used were 25 nM and 50 nM for PI3Kβ. […]
For compound profiling, the reaction mixture contained 2 μl PI3K enzyme, 2 μl compound and/or pY and 2 μl of liposome substrate mixed with ATP. […] Luminescence was read using a Sense (Hidex) plate reader. […]
For characterisation of the effects of 1938 on in vitro PI3K enzymology, all reactions were performed at room temperature with 384 white-polystyrene plates (Corning #3574). […] For enzyme kinetic calculations, data was expressed as velocity (pmol of ADP generated/sec). […]

In the next assay the target is T2, ATM (Homo sapiens, UniProt Q13315).
T2 construct: made in house
Briefly: ATM kinase assay (Phos-tag gel). Conditions: 200 μM 1938. The assay is classed as biochemical. On the procedure:
133 protein kinases and 7 lipid kinases were counterscreened, with […] used at 1 μM, using the Adapta, Lantha and Z-LYTE assays (SelectScreen Kinase Profiling Service; Thermofisher—experimental details of these assays can be found here: https://www.thermofisher.com/uk/en/home/industrial/pharma-biopharma/drug-discovery-development/target-and-lead-identification-and-validation/kinasebiology/kinase-activity-assays.html. The tree representation in KinMap generated courtesy of Cell Signaling Technology, Inc. (www.cellsignal.com). mTORC1 (mTOR/RAPTOR/LST8) protein complex and ATM kinase and substrates were produced as previously described (Anandapadamanaban, M. et al. Science (New York, NY 366, 203-210 (2019); Baretic, D. et al. Sci Adv 3, e1700933 (2017). Screening of 1938 was conducted using SuperSep Phos-Tag 50 μmol/l 100×100×6.6 mm 17-well (192-18001/199-18011) gels. For ATM assays, 100 nM ATM was incubated for 30 min at 30° C. with 5 μM GST-p53 and 1 mM ATP, in the absence or presence of 200 μM 1938 in ATM Kinase Buffer (50 mM HEPES pH 7.5, 100 mM NaCl, 10% glycerol, 2 mM […], 5 mM MgCl2). […] Gels were then stained using InstantBlue™ Coomassie stain, and then quantified using BioRad Image Lab Software. […]

T2 sequence (Q13315 whole entry, species assumed): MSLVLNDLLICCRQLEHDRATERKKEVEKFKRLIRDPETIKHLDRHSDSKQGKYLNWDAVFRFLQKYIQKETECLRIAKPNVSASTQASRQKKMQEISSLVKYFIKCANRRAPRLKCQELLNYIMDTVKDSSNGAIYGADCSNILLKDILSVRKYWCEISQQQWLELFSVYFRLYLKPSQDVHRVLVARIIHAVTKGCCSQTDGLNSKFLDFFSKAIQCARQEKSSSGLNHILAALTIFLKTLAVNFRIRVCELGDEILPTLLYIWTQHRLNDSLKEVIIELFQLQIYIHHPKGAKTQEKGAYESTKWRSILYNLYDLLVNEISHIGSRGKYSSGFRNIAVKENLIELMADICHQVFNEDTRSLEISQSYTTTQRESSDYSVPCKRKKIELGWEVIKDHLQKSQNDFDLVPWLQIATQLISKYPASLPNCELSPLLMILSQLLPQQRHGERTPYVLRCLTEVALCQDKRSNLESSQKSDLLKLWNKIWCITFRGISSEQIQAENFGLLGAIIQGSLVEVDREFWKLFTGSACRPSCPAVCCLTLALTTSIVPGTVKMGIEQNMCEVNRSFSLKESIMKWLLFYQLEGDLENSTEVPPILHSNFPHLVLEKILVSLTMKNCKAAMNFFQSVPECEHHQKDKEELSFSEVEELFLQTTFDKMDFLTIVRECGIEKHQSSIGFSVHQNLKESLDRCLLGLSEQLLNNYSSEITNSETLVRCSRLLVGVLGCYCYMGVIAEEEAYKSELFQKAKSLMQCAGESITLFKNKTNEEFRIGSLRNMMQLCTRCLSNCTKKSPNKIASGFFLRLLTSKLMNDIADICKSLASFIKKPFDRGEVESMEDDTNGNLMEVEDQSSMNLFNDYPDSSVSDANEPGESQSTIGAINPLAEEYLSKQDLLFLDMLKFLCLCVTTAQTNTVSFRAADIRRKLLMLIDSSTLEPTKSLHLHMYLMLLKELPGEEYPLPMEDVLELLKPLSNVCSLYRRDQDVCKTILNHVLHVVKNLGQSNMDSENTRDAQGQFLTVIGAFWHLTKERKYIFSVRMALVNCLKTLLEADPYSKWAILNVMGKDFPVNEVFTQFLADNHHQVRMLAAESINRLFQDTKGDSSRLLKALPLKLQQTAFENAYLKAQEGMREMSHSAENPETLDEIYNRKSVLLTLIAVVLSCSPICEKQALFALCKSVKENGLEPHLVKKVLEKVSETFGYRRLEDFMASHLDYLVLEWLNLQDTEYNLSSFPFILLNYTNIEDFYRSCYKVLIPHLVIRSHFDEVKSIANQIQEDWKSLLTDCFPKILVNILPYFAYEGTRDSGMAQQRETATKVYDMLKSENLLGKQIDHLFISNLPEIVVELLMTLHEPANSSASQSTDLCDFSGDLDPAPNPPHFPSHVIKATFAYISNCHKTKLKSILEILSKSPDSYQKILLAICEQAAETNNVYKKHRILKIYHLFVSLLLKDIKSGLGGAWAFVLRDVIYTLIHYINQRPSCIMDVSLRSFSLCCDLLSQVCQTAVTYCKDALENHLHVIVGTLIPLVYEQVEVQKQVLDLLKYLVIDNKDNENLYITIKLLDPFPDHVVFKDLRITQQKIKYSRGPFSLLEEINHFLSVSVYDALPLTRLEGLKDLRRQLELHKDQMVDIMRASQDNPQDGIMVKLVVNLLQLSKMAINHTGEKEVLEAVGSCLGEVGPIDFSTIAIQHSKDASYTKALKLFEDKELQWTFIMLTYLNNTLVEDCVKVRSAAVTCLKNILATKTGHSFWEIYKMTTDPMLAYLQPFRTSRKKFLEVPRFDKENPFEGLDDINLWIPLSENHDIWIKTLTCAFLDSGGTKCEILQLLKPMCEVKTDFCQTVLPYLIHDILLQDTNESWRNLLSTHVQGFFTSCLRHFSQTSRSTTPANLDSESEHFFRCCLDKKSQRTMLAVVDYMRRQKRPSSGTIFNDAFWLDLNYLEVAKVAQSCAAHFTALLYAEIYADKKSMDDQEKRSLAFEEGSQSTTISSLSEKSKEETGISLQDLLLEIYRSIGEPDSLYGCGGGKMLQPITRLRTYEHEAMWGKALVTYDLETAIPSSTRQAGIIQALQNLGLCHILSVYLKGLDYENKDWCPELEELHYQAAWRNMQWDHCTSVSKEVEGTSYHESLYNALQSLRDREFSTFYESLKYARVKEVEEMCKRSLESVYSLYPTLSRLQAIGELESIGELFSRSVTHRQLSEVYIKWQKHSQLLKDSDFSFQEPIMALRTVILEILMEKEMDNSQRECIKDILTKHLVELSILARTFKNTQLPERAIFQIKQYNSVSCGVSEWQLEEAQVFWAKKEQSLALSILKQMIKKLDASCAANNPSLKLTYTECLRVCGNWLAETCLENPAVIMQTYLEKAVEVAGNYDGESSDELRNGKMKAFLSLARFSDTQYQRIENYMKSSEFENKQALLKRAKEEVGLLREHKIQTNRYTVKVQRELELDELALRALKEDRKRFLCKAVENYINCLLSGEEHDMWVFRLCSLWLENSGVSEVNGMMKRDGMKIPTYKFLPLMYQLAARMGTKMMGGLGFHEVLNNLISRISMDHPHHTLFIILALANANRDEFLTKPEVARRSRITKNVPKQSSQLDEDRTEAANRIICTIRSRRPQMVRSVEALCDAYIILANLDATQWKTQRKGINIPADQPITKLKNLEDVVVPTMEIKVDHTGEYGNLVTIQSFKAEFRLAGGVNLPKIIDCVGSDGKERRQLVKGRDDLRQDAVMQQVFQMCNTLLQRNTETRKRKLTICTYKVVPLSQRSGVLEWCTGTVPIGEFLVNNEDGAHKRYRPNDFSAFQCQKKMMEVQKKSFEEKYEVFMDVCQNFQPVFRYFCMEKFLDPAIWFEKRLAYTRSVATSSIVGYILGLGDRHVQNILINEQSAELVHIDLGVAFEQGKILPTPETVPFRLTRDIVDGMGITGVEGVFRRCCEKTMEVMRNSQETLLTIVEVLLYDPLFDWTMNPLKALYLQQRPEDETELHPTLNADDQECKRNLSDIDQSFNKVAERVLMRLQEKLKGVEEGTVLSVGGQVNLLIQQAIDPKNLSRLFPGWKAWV
T1 sequence (O00329 whole entry, species assumed): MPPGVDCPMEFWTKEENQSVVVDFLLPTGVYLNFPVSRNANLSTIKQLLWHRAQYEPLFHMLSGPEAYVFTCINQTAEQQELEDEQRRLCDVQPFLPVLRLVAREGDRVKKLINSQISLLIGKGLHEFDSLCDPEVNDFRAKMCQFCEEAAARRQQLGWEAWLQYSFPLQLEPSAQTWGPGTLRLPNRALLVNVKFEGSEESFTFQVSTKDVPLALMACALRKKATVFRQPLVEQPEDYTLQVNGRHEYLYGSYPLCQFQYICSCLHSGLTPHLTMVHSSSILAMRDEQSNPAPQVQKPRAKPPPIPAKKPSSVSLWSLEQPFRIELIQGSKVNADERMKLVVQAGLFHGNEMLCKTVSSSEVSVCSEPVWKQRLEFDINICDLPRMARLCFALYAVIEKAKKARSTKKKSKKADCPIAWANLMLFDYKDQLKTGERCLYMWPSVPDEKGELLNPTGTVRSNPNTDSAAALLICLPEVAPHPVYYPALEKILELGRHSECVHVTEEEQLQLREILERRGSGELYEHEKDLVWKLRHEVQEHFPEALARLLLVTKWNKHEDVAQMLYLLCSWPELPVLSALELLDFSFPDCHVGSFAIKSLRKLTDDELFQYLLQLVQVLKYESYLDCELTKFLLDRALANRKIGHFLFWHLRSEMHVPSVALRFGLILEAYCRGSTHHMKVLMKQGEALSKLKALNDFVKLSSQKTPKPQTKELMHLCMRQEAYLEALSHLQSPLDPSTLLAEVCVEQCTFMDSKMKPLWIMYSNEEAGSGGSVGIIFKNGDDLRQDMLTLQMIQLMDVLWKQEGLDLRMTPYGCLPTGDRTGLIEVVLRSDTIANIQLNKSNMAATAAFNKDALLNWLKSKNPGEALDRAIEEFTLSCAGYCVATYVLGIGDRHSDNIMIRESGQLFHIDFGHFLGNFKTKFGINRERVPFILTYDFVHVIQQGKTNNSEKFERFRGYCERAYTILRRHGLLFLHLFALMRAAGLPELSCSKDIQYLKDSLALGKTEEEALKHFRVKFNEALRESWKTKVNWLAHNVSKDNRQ
T1 sequence (P27986 whole entry partner, species assumed): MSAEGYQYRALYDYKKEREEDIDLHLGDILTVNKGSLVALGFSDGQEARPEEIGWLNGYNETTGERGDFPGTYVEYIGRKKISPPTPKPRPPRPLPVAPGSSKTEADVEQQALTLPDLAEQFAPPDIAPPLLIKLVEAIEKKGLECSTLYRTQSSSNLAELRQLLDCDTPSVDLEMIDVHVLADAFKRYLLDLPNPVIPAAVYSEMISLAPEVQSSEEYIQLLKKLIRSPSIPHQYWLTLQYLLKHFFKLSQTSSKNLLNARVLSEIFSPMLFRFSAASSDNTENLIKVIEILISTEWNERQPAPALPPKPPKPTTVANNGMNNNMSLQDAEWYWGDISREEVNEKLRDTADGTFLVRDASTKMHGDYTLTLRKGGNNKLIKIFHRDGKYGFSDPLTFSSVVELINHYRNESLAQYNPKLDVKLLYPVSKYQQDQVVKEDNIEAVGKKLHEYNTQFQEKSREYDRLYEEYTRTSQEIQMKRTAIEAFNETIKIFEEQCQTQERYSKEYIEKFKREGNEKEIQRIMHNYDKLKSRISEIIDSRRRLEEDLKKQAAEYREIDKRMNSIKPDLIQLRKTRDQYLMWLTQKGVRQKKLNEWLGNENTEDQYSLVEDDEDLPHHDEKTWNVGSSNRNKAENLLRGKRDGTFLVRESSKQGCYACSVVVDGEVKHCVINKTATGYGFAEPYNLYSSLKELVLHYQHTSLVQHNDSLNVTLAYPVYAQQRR

Turning to `CCN1CCN(c2ccc(Nc3cc(Nc4cccc5c4N(C(C)=O)CC5)ccn3)cc2)CC1` [Example 1938], on PI3Kδ, the “effect on in vitro lipid kinase activity of PI3Kδ” value is recorded as “not PI3Kβ or PI3Kδ”. For the same compound, the “activity of ATM” value on ATM is given as “did not affect”.

Source of the values: patent publication US20250263404A1, “AMINOPYRIDINES AS ACTIVATORS OF PI3 KINASE” (UCL Business Ltd, priority 2021, published 2025).
